Test system: MCF-7 tumor models
Test: Live/dead staining of drug-treated 3D tumor models
Format: cell-based, human
Conditions: 200 μM, compared to negative and positive controls
Method: To assess cell viability in both the core tumor model and the 3D breast tumor model with the stromal compartment, calcein (targets live cells in green) and propidium iodide (targets dead cells in red) were added to the cell culture medium of the 3D constructs at a 1:100 concentration.

SMILES: CC/C(=C(\c1ccccc1)c1ccc(OCCN(C)C)cc1)c1ccccc1 [Tamoxifen]
- live/dead staining: Dead cells are observed in the outer regions of the models

From patent publication US20260275299A1, “Bioprinted Three-Dimensional Tumor Model” (ASOCIACIÓN CENTRO DE INVESTIGACIÓN EN BIOMATERIALES - CIC …, priority 2023, published 2026)
